Source: patent publication US11173151B2, “Substituted triazole derivatives and uses thereof” (BAYER AKTIENGESELLSCHAFT, priority 2017, dated 2021)

Assays:
[1] = target: T1, human V1a receptor (Homo sapiens, UniProt P37288); test: Cellular in vitro assay for determining vasopressin receptor activity, V1a receptor cell line (CHO, aequorin luminescence); type: cell-based; details: for IC50: CHO cell line transfected with human V1a receptor, [Arg]-vasopressin at EC50 concentration, read-out: IC50 hV1a; for ratio IC50 hV2/hV1a: selectivity ratio IC50 hV2 / IC50 hV1a
T1 construct: expressed in transfected cells; host or cells: CHO K1 (ATCC), also stably transfected with a modified aequorin
T1 sequence (P37288 whole entry): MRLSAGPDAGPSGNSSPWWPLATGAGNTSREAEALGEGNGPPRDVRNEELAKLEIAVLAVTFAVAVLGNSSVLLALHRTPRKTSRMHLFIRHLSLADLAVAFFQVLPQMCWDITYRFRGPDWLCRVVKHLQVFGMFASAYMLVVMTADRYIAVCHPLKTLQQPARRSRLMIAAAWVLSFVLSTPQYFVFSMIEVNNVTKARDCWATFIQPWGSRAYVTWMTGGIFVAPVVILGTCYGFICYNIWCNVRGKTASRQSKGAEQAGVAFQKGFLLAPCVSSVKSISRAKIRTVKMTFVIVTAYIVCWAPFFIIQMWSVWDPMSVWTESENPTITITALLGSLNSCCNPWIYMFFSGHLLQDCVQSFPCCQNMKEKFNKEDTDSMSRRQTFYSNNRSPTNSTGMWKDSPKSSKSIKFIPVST
Summary of the method: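 Cells were plated the day before in medium containing 5 μg/ml coelenterazine and kept at 37° C. Compounds at various concentrations were then added for 10 minutes. Next, [Arg]-vasopressin at EC50 was applied and light output recorded at once, yielding IC50.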

[2] = target: T2, human V2 receptor (Homo sapiens, UniProt P30518); test: Cellular in vitro assay for determining vasopressin receptor activity, V2 receptor cell line (CHO, CRE-luciferase); type: cell-based; details: CHO cell line transfected with human V2 receptor; [Arg8]-vasopressin at EC50 concentration, 3 hours; read-out: IC50 hV2
T2 construct: expressed in transfected cells; host or cells: CHO K1 (ATCC) expressing firefly luciferase under a CRE-responsive promoter
T2 sequence (P30518 whole entry): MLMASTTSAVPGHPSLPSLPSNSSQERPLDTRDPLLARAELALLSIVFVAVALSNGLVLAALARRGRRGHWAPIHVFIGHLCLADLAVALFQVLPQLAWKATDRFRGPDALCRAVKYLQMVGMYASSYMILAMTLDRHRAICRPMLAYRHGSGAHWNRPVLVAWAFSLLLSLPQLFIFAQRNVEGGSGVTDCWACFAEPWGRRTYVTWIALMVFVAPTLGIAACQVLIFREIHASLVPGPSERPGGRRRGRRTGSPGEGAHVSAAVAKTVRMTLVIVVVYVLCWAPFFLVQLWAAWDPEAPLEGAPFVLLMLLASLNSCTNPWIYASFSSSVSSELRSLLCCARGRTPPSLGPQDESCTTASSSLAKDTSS

Row | Compound | IC50 [1] | ratio IC50 hV2/hV1a [1] | IC50 [2]
1 | O=C1NCCN1CCNc1ccncc1-n1cnc(Cn2nc(-c3ccc(Cl)cc3)n(C[C@H](O)C(F)(F)F)c2=O)n1 [Example 8, 5-(4-Chlorophenyl)-2-{[1-(4-{[2-(2-oxoimidazolidin-1-yl)ethyl]amino}pyridin-3-yl)-1H-1,2,4-triazol-3-yl]methyl}-4-[(2S)-3,3,3-trifluoro-2-hydroxypropyl]-2,4-dihydro-3H-1,2,4-triazol-3-one] | 585 nM | 5.1 | 3000 nM
2 | O=c1n(Cc2ncn(-c3cnccc3NCCC(F)(F)F)n2)nc(-c2ccc(Cl)cc2)n1C[C@H](O)C(F)(F)F [Example 11, 5-(4-Chlorophenyl)-4-[(2S)-3,3,3-trifluoro-2-hydroxypropyl]-2-[(1-{4-[(3,3,3-trifluoropropyl)amino]pyridin-3-yl}-1H-1,2,4-triazol-3-yl)methyl]-2,4-dihydro-3H-1,2,4-triazol-3-one] | 958 nM | 0.4 | 410 nM
3 | CC(F)(F)CNc1ccncc1-n1cnc(Cn2nc(-c3ccc(Cl)cc3)n(C[C@H](O)C(F)(F)F)c2=O)n1 [Example 12, 5-(4-Chlorophenyl)-2-[(1-{4-[(2,2-difluoropropyl)amino]pyridin-3-yl}-1H-1,2,4-triazol-3-yl)methyl]-4-[(2S)-3,3,3-trifluoro-2-hydroxypropyl]-2,4-dihydro-3H-1,2,4-triazol-3-one] | 727 nM | 0.5 | 370 nM
4 | NC(=O)CNc1ccncc1-n1cnc(Cn2nc(-c3ccc(Cl)cc3)n(C[C@H](O)C(F)(F)F)c2=O)n1 [Example 17, N^2-{3-[3-({3-(4-Chlorophenyl)-5-oxo-4-[(2S)-3,3,3-trifluoro-2-hydroxypropyl]-4,5-dihydro-1H-1,2,4-triazol-1-yl}methyl)-1H-1,2,4-triazol-1-yl]pyridin-4-yl}glycinamide] | 2250 nM | 1.3 | 2850 nM
5 | O=C(O)CCNc1ccncc1-n1cnc(Cn2nc(-c3ccc(Cl)cc3)n(C[C@H](O)C(F)(F)F)c2=O)n1 [Example 20, N-{3-[3-({3-(4-Chlorophenyl)-5-oxo-4-[(2S)-3,3,3-trifluoro-2-hydroxypropyl]-4,5-dihydro-1H-1,2,4-triazol-1-yl}methyl)-1H-1,2,4-triazol-1-yl]pyridin-4-yl}-beta-alanine] | 4350 nM | 1.4 | 5920 nM
6 | NC(=O)CCNc1ccncc1-n1cnc(Cn2nc(-c3ccc(Cl)cc3)n(C[C@H](O)C(F)(F)F)c2=O)n1 [Example 21, N^3-{3-[3-({3-(4-Chlorophenyl)-5-oxo-4-[(2S)-3,3,3-trifluoro-2-hydroxypropyl]-4,5-dihydro-1H-1,2,4-triazol-1-yl}methyl)-1H-1,2,4-triazol-1-yl]pyridin-4-yl}-beta-alaninamide] | 840 nM | 1.8 | 1480 nM
7 | NC(=O)[C@@H]1CCCN1c1ccncc1-n1cnc(Cn2nc(-c3ccc(Cl)cc3)n(C[C@H](O)C(F)(F)F)c2=O)n1 [Example 23, 1-{3-[3-({3-(4-Chlorophenyl)-5-oxo-4-[(2S)-3,3,3-trifluoro-2-hydroxypropyl]-4,5-dihydro-1H-1,2,4-triazol-1-yl}methyl)-1H-1,2,4-triazol-1-yl]pyridin-4-yl}-L-prolinamide] | 710 nM | 6.0 | 4250 nM
8 | NC(=O)[C@@H]1CC(F)(F)CN1c1ccncc1-n1cnc(Cn2nc(-c3ccc(Cl)cc3)n(C[C@H](O)C(F)(F)F)c2=O)n1 [Example 25, 1-{3-[3-({3-(4-Chlorophenyl)-5-oxo-4-[(2S)-3,3,3-trifluoro-2-hydroxypropyl]-4,5-dihydro-1H-1,2,4-triazol-1-yl}methyl)-1H-1,2,4-triazol-1-yl]pyridin-4-yl}-4,4-difluoro-L-prolinamide] | 1970 nM | 2.5 | 4900 nM

These reach a lower IC50 [1]. Values come first.

Row | IC50 [1] | ratio IC50 hV2/hV1a [1] | IC50 [2] | Compound
9 | 430 nM | 5.2 | 2250 nM | CC(C)(C)OC(=O)CCNc1ccncc1-n1cnc(Cn2nc(-c3ccc(Cl)cc3)n(C[C@H](O)C(F)(F)F)c2=O)n1 [Example 19, Tert-butyl N-{3-[3-({3-(4-chlorophenyl)-5-oxo-4-[(2S)-3,3,3-trifluoro-2-hydroxypropyl]-4,5-dihydro-1H-1,2,4-triazol-1-yl}methyl)-1H-1,2,4-triazol-1-yl]pyridin-4-yl}-beta-alaninate]
10 | 330 nM | 14.2 | 4670 nM | NC(=O)[C@H]1CC(F)(F)CN1c1ccncc1-n1cnc(Cn2nc(-c3ccc(Cl)cc3)n(C[C@H](O)C(F)(F)F)c2=O)n1 [Example 24, 1-{3-[3-({3-(4-Chlorophenyl)-5-oxo-4-[(2S)-3,3,3-trifluoro-2-hydroxypropyl]-4,5-dihydro-1H-1,2,4-triazol-1-yl}methyl)-1H-1,2,4-triazol-1-yl]pyridin-4-yl}-4,4-difluoro-D-prolinamide]
11 | 278 nM | 19.2 | 5330 nM | CC1(C)CN(c2ccncc2-n2cnc(Cn3nc(-c4ccc(Cl)cc4)n(C[C@H](O)C(F)(F)F)c3=O)n2)CCN1 [Example 14, 5-(4-Chlorophenyl)-2-({1-[4-(3,3-dimethylpiperazin-1-yl)pyridin-3-yl]-1H-1,2,4-triazol-3-yl}methyl)-4-[(2S)-3,3,3-trifluoro-2-hydroxypropyl]-2,4-dihydro-3H-1,2,4-triazol-3-one]
12 | 250 nM | 2.8 | 690 nM | NC(=O)[C@H]1CCCN1c1ccncc1-n1cnc(Cn2nc(-c3ccc(Cl)cc3)n(C[C@H](O)C(F)(F)F)c2=O)n1 [Example 22, 1-{3-[3-({3-(4-Chlorophenyl)-5-oxo-4-[(2S)-3,3,3-trifluoro-2-hydroxypropyl]-4,5-dihydro-1H-1,2,4-triazol-1-yl}methyl)-1H-1,2,4-triazol-1-yl]pyridin-4-yl}-D-prolinamide]
13 | 235 nM | 1.9 | 445 nM | O=c1n(Cc2ncn(-c3cnccc3NCC(F)(F)F)n2)nc(-c2ccc(Cl)cc2)n1C[C@H](O)C(F)(F)F [Example 10, 5-(4-Chlorophenyl)-2-[(1-{4-[(2,2,2-trifluoroethyl)amino]pyridin-3-yl}-1H-1,2,4-triazol-3-yl)methyl]-4-[(2S)-3,3,3-trifluoro-2-hydroxypropyl]-2,4-dihydro-3H-1,2,4-triazol-3-one]
14 | 180 nM | 16.7 | 3000 nM | O=C1CN(c2ccncc2-n2cnc(Cn3nc(-c4ccc(Cl)cc4)n(C[C@H](O)C(F)(F)F)c3=O)n2)CCN1 [Example 5, 4-{3-[3-({3-(4-Chlorophenyl)-5-oxo-4-[(2S)-3,3,3-trifluoro-2-hydroxypropyl]-4,5-dihydro-1H-1,2,4-triazol-1-yl}methyl)-1H-1,2,4-triazol-1-yl]pyridin-4-yl}piperazin-2-one]
15 | 79.5 nM | 19.5 | 1550 nM | CC(C)(C)OC(=O)CNc1ccncc1-n1cnc(Cn2nc(-c3ccc(Cl)cc3)n(C[C@H](O)C(F)(F)F)c2=O)n1 [Example 16, Tert-butyl N-{3-[3-({3-(4-chlorophenyl)-5-oxo-4-[(2S)-3,3,3-trifluoro-2-hydroxypropyl]-4,5-dihydro-1H-1,2,4-triazol-1-yl}methyl)-1H-1,2,4-triazol-1-yl]pyridin-4-yl}glycinate]
16 | 71.5 nM | 35.0 | 2500 nM | O=c1n(Cc2ncn(-c3cnccc3N3CCS(=O)(=O)CC3)n2)nc(-c2ccc(Cl)cc2)n1C[C@H](O)C(F)(F)F [Example 6, 5-(4-Chlorophenyl)-2-({1-[4-(1,1-dioxidothiomorpholin-4-yl)pyridin-3-yl]-1H-1,2,4-triazol-3-yl}methyl)-4-[(2S)-3,3,3-trifluoro-2-hydroxypropyl]-2,4-dihydro-3H-1,2,4-triazol-3-one]
17 | 58 nM | 5.6 | 323 nM | O=C(Nc1ccncc1-n1cnc(Cn2nc(-c3ccc(Cl)cc3)n(C[C@H](O)C(F)(F)F)c2=O)n1)OCC(F)(F)F [Example 26, 2,2,2-Trifluoroethyl {3-[3-({3-(4-chlorophenyl)-5-oxo-4-[(2S)-3,3,3-trifluoro-2-hydroxypropyl]-4,5-dihydro-1H-1,2,4-triazol-1-yl}methyl)-1H-1,2,4-triazol-1-yl]pyridin-4-yl}carbamate]
18 | 23.7 nM | 82.3 | 1950 nM | O=c1n(Cc2ncn(-c3cnccc3NCC3CS(=O)(=O)C3)n2)nc(-c2ccc(Cl)cc2)n1C[C@H](O)C(F)(F)F [Example 18, 5-(4-Chlorophenyl)-2-{[1-(4-{[(1,1-dioxidothietan-3-yl)methyl]amino}pyridin-3-yl)-1H-1,2,4-triazol-3-yl]methyl}-4-[(2S)-3,3,3-trifluoro-2-hydroxypropyl]-2,4-dihydro-3H-1,2,4-triazol-3-one]
19 | 19.3 nM | 40.8 | 785 nM | O=c1n(Cc2ncn(-c3cnccc3N3CCOCC3)n2)nc(-c2ccc(Cl)cc2)n1C[C@H](O)C(F)(F)F [Example 15, 5-(4-Chlorophenyl)-2-({1-[4-(morpholin-4-yl)pyridin-3-yl]-1H-1,2,4-triazol-3-yl}methyl)-4-[(2S)-3,3,3-trifluoro-2-hydroxypropyl]-2,4-dihydro-3H-1,2,4-triazol-3-one]
20 | 6.5 nM | 43.8 | 285 nM | O=c1n(Cc2ncn(-c3cnccc3N3CCC(F)(F)CC3)n2)nc(-c2ccc(Cl)cc2)n1C[C@H](O)C(F)(F)F [Example 9, 5-(4-Chlorophenyl)-2-({1-[4-(4,4-difluoropiperidin-1-yl)pyridin-3-yl]-1H-1,2,4-triazol-3-yl}methyl)-4-[(2S)-3,3,3-trifluoro-2-hydroxypropyl]-2,4-dihydro-3H-1,2,4-triazol-3-one]
